Assay results from patent US5089516A, “1-phenyl-3,5-pyrazolidinedione hydroxystyrene compounds which have tyrosine kinase inhibiting activity” (Kanegafuchi Kagaku Kogyo Kabushiki Kaisha, priority 1987, dated 1992).
In brackets after ≈: the same amount, converted by molar mass.

What was measured:
[1] = test system: Micrococcus luteus IFO 13867; assay: Antibacterial activity (MIC) against Micrococcus luteus IFO 13867; type: cell-based; conditions: IFO13867, 37° C., 18 to 20 hours
Method: The antibacterial activity against Gram-positive bacteria of the compound of the present invention was measured according to a standard method of Nippon Kagaku Ryoho Gakkai [Nippon Kagaku Ryoho Gakkaishi (Journal of the Chemical therapy of Japan), 29, 76(1981)].
As for gram-positive bacteria, after cultivation in Meuller Hinton broth medium (made by Difco Co., Ltd.), there was prepared a bacterial suspension for inoculation containing about 10^6 of the bacteria per 1 ml of the Meuller Hinton broth medium. On the other hand, the test compound was added to Mueller Hinton agar medium (made by Difco Co., Ltd.) so as to give agar plate medium containing test samples which are twofold serial diluted. Then, the above-mentioned bacterial suspension for inoculation was streaked to each agar medium for about 2 cm with a looped nichrome wire (inner diameter: about 1 mm).
After that the each agar plate medium was cultured at 37° C. for 18 to 20 hours, the growth of the test bacteria was determined.

[2] = test system: Nycobacterium smegmatis ATCC 607; assay: Antibacterial activity (MIC) against acid-fast bacteria; type: cell-based; conditions: 37° C., 40 to 42 hours
Method: As for acid-fast bacteria, after cultured in glycerol broth medium, there was prepared a bacterial suspension for inoculation containing about 10^6 of the bacteria per 1 ml of the medium. On the other hand, there were prepared some glycerol Czapek agar plating media with adding the test compounds, and thereto the bacterial suspension for inoculation was streaked.

[3] = test system: passive cutaneous anaphylaxis (PCA) reaction; assay: Inhibitory activity against homologous PCA reaction in rats; type: in vivo, male Wistar rats; conditions: Rattus norvegicus, 100 mg/kg, oral, 1 hour before antigen, read-out: Inhibition rate (PCA reaction)
Method: (1) Inhibitory activity against homologous PCA reaction in rats
Antiserum was prepared according to I. Mota [Immunology, 7, 681(1964)]and the PCA reaction was conducted according to Maruyama et al. [Folia Pharmacologica Japonica, 74, 179(1978}].
An ovalbumin solution dissolved in physiological saline (2 mg/ml) was injected intramuscularly into both thighs of male Wistar rats weighing 200 to 260 g in a volume of 0.5 ml/100 g body weight, and pertussis vaccine (Bordetella pertussis, 2×10^10 /ml/ Chiba Serum Institute) was intraperitoneally administered at 1 ml/rat. Twelve days after sensitization, blood was taken from posterior aorta under ether anesthesia and serum was separated and stored at -80° C.
In each group, 4 male Wistar rats weighing 180 to 210 g were used. Back of the rats was shaved and reach 0.05 ml of antiserum diluted 32 times with physiological saline was injected intradermally at four sites on the back. After 48 hours, 1 ml of a mixture of ovalbumin (2 mg/ml) as an antigen and Evans blue (10 mg/ml) in the volume ratio of 1 : 1, which was dissolved in physiological saline was injected intravenously into the tail. Thirty minutes later, the rats were bled to death under ether anesthesia and the back skin of the rats was removed. The blue-dyed area formed by pigment exudation was measured and an inhibition rate (%) was calculated as compared with control according to the following equation. [formula]
A test compound suspended in a 2.5 % aqueous solution of gum arabic containing 0.2 % Tween 80 was administered orally in a volume of 0.5 m:/100 g body weight 1 hour before the injection of antigen. To the control group, only the vehicle was administered. Tranilast which was a positive control compound was administered orally 30 minutes before the injection of antigen.

| SMILES | MIC [1] | MIC [2] | inhibition in vivo at 100 mg/kg [3] |
| --- | --- | --- | --- |
| O=C1NC(=S)SC1=Cc1cc(Cc2ccccc2)c(O)c(Cc2ccccc2)c1 [Compound 2] | ≤ 6 µg/mL |  |  |
| CC(C)c1cc(C=C2SC(NCc3ccc(N)cc3)=NC2=O)cc(C(C)C)c1O [Compound 42] |  | ≤ 15 µg/mL |  |
| CC(C)c1cc(C=C2SC(NCc3ccccc3)=NC2=O)cc(C(C)C)c1O [Compound 33] |  | ≤ 15 µg/mL | 50% |
| CC(C)c1cc(C=C2SC(NCc3ccc(Cl)c(Cl)c3)=NC2=O)cc(C(C)C)c1O [Compound 37] |  |  | 21% |
| CC(C)c1cc(C=C2SC(NCc3ccc(F)cc3)=NC2=O)cc(C(C)C)c1O [Compound 35] |  | 15 µg/mL (≈ 36.4 µM) | 43% |
| CC(C)c1cc(C=C2SC(NCc3ccc(S(N)(=O)=O)cc3)=NC2=O)cc(C(C)C)c1O [Compound 41] |  | 25 µg/mL (≈ 52.8 µM) | 25% |
| O=C1Nc2ccccc2C1=Cc1cc(O)c(O)c(CSc2ccccc2)c1 [Compound 11] | 12 µg/mL (≈ 32 µM) |  |  |
| O=C1N=C(NCc2cccs2)SC1=Cc1cc(CSc2ccccc2)c(O)c(OCc2ccccc2)c1 [Compound 31] |  | ≤ 6 µg/mL |  |
| O=C1NN(c2ccccc2)C(=O)C1=Cc1cc(Cc2ccccc2)c(O)c(Cc2ccccc2)c1 [Compound 20] | ≤ 50 µg/mL |  |  |
| Cc1ccc(CNC2=NC(=O)C(=Cc3cc(C(C)C)c(O)c(C(C)C)c3)S2)cc1 [Compound 39] |  |  | 65% |
